Like-named read-outs stand apart in the source and are kept apart here.
Tested on: Mycosphaerella graminicola; Anamorph: Septoria tritici; Bayer Code SEPTTR
Assay: Leaf blotch of wheat, foliar fungicide treatment, one day protectant (1DP) or three day curative (3DC)
Format: in vivo, Septoria tritici on wheat plants (variety Yuma)
Settings: Zymoseptoria tritici; for pest or weed control at 50 ppm / pest or weed control at 200 ppm: % disease control rating
[1] = 72 h, three day curative (3DC), 25 ppm, percent disease control rating, read-out: SEPTTR 3DC 25 ppm
[2] = 72 h, three day curative (3DC), percent disease control rating, read-out: SEPTTR 3DC 100 ppm
[3] = 24 h, one day protectant, 25 ppm, rating of percent disease control, read-out: SETTTR 1DP 25 ppm
[4] = 24 h, one day protectant, rating of percent disease control, read-out: SEPTTR 1DP 100 ppm
[5] = 72 h, three day curative, 25 ppm, rating of percent disease control, read-out: SEPTTR 3DC 25 ppm
[6] = 72 h, three day curative, rating of percent disease control, read-out: SEPTTR 3DC 100 ppm
[7] = 24 h, one day protectant (1DP), 25 ppm, rating of percent disease control, read-out: SETTTR 1DP 25 ppm
[8] = 24 h, one day protectant (1DP), rating of percent disease control, read-out: SEPTTR 1DP 100 ppm
[9] = 72 h, three day curative (3DC), 25 ppm, rating of percent disease control, read-out: SEPTTR 3DC 25 ppm
[10] = 72 h, three day curative (3DC), rating of percent disease control, read-out: SEPTTR 3DC 100 ppm
[11] = 24 h, one day protectant (1DP), 25 ppm (first 1DP column), percent control rating, read-out: SETTTR 1DP 25 ppm
[12] = 24 h, one day protectant (1DP), 25 ppm as printed (second 1DP column), percent control rating, read-out: SETTTR 1DP 25 ppm
[13] = 72 h, three day curative (3DC), 25 ppm, percent control rating, read-out: SEPTTR 3DC 25 ppm
[14] = 72 h, three day curative (3DC), percent control rating, read-out: SEPTTR 3DC 100 ppm

O=S(=O)(Cc1ccccc1)Nc1nc(O)ncc1F [Compound 1132]
pest or weed control at 25 ppm (24 h, one day protectant (1DP), 25 ppm (first 1DP column), percent disease control rating, read-out: SETTTR 1DP 25 ppm): 51 to 75% | pest or weed control at 25 ppm (24 h, one day protectant (1DP), 25 ppm as printed (second 1DP column), percent disease control rating, read-out: SETTTR 1DP 25 ppm): 51 to 75% | pest or weed control at 25 ppm [1]: 76 to 100% | pest or weed control at 100 ppm [2]: 76 to 100%

CCCCOc1cccc(COc2ncc(F)c(N)n2)c1 [Compound 708]
pest or weed control at 25 ppm [3]: 76 to 100% | pest or weed control at 100 ppm [4]: 76 to 100% | pest or weed control at 25 ppm [5]: 76 to 100% | pest or weed control at 100 ppm [6]: 76 to 100%

Nc1nc(OCc2cccc(I)c2)ncc1F [Compound 212]
pest or weed control at 25 ppm [7]: 76 to 100% | pest or weed control at 100 ppm [8]: 76 to 100% | pest or weed control at 25 ppm [9]: 76 to 100% | pest or weed control at 100 ppm [10]: 76 to 100%

Cc1ccc(COc2ncc(F)c(NCOCc3ccccc3)n2)cc1 [Compound 162]
pest or weed control at 25 ppm (24 h, one day protectant (1DP), 25 ppm, percent disease control rating, read-out: SETTTR 1DP 25 ppm): 26 to 50% | pest or weed control at 100 ppm (24 h, one day protectant (1DP), percent disease control rating, read-out: SEPTTR 1DP 100 ppm): 76 to 100% | pest or weed control at 25 ppm [1]: 0 to 25% | pest or weed control at 100 ppm [2]: 0 to 25%

Fc1ccc(COc2ncc(F)c(NCc3ccc4c(c3)OCO4)n2)cc1 [Compound 882]
pest or weed control at 50 ppm (24 h, one day protectant): 76 to 100% | pest or weed control at 200 ppm (24 h, one day protectant): 76 to 100%

Nc1nc(OCc2ccc(CO)cc2)ncc1F [Compound 637]
pest or weed control at 25 ppm [3]: 76 to 100% | pest or weed control at 100 ppm [4]: 76 to 100% | pest or weed control at 25 ppm [5]: 76 to 100% | pest or weed control at 100 ppm [6]: 76 to 100%

C=CCOc1ncc(F)c(N/N=C(\C)c2ccc(Cl)s2)n1 [Compound 1061]
pest or weed control at 25 ppm [11]: 26 to 50% | pest or weed control at 25 ppm [12]: 0 to 25% | pest or weed control at 25 ppm [13]: 0 to 25% | pest or weed control at 100 ppm [14]: 0 to 25%

CC[Si](CC)(CC)Nc1nc(OCc2ccc(C)cc2)ncc1F [Compound 561]
pest or weed control at 25 ppm [3]: 76 to 100% | pest or weed control at 100 ppm [4]: 76 to 100% | pest or weed control at 25 ppm [5]: 76 to 100% | pest or weed control at 100 ppm [6]: 76 to 100%

CC(C)S(=O)(=O)Nc1nc(OCc2ccccc2)ncc1F [Compound 1009]
pest or weed control at 25 ppm [11]: 0 to 25% | pest or weed control at 25 ppm [12]: 0 to 25% | pest or weed control at 25 ppm [13]: 0 to 25% | pest or weed control at 100 ppm [14]: 0 to 25%

Nc1nc(OCCNc2ccccc2)ncc1F [Compound 583]
pest or weed control at 25 ppm [3]: 0 to 25% | pest or weed control at 100 ppm [4]: 76 to 100% | pest or weed control at 25 ppm [5]: 76 to 100% | pest or weed control at 100 ppm [6]: 76 to 100%

Nc1nc(OCc2ccccc2Br)ncc1F [Compound 604]
pest or weed control at 25 ppm [3]: 76 to 100% | pest or weed control at 100 ppm [4]: 76 to 100% | pest or weed control at 25 ppm [5]: 76 to 100% | pest or weed control at 100 ppm [6]: 76 to 100%

Cc1ccc(COc2ncc(F)c(/N=C/N3CCOCC3)n2)cc1 [Compound 402]
pest or weed control at 25 ppm [7]: 76 to 100% | pest or weed control at 100 ppm [8]: 76 to 100% | pest or weed control at 25 ppm [9]: 76 to 100% | pest or weed control at 100 ppm [10]: 76 to 100%

Fc1cnc(OCc2ccccc2)nc1NCOCc1ccccc1 [Compound 330]
pest or weed control at 25 ppm [7]: 0 to 25% | pest or weed control at 100 ppm [8]: 76 to 100% | pest or weed control at 25 ppm [9]: 0 to 25% | pest or weed control at 100 ppm [10]: 26 to 50%

Fc1ccc(COc2ncc(F)c(NNC3CCCCC3)n2)cc1 [Compound 492]
pest or weed control at 25 ppm [7]: 0 to 25% | pest or weed control at 100 ppm [8]: 26 to 50% | pest or weed control at 25 ppm [9]: 0 to 25% | pest or weed control at 100 ppm [10]: 26 to 50%

COc1ccc(Br)c(COc2ncc(F)c(N)n2)c1F [Compound 224]
pest or weed control at 25 ppm [7]: 26 to 50% | pest or weed control at 100 ppm [8]: 76 to 100% | pest or weed control at 25 ppm [9]: 0 to 25% | pest or weed control at 100 ppm [10]: 26 to 50%

Nc1nc(OS(=O)(=O)c2cccs2)ncc1F [Compound 348]
pest or weed control at 25 ppm [7]: 76 to 100% | pest or weed control at 100 ppm [8]: 76 to 100% | pest or weed control at 25 ppm [9]: 76 to 100% | pest or weed control at 100 ppm [10]: 76 to 100%

C=CCOc1ncc(F)c(/N=N/c2ccc(Br)cc2)n1 [Compound 1100]
pest or weed control at 25 ppm [11]: 0 to 25% | pest or weed control at 25 ppm [12]: 0 to 25% | pest or weed control at 25 ppm [13]: 26 to 50% | pest or weed control at 100 ppm [14]: 26 to 50%

Cc1ccc(COc2ncc(F)c(NO)n2)cc1 [Compound 325]
pest or weed control at 25 ppm [7]: 76 to 100% | pest or weed control at 100 ppm [8]: 76 to 100% | pest or weed control at 25 ppm [9]: 76 to 100% | pest or weed control at 100 ppm [10]: 76 to 100%

CC(C)(C)C(=O)OCOc1ncc(F)c(N)n1 [Compound 1119]
pest or weed control at 25 ppm [11]: 76 to 100% | pest or weed control at 25 ppm [12]: 76 to 100% | pest or weed control at 25 ppm [13]: 76 to 100% | pest or weed control at 100 ppm [14]: 76 to 100%

Fc1ccccc1CNc1nc(OCc2ccc(Cl)cc2)ncc1F [Compound 918]
pest or weed control at 50 ppm (24 h, one day protectant): 76 to 100% | pest or weed control at 200 ppm (24 h, one day protectant): 76 to 100%
